Like-named read-outs stand apart in the source and are kept apart here.
How the values were obtained:
mouse CB1R = molecular target: T1, mouse CB1R (Mus musculus, UniProt P47746); assay: Radioligand competition displacement binding, [3H]CP-55,940, mouse brain membranes; settings: [3H]CP-55,940 displacement, mouse brain membranes; read-out: CB1R mKi
T1 construct: crude membranes from mouse brain; from tissue; host or cells: mouse brain cortex (without cerebellum) membranes, C57Bl/6Jhsd mice
Experimental: (§1) BNS compounds’ binding to CB1R and CB2R was assessed in competition displacement assays using [^3H]CP-55,940 as the radioligand and crude membranes from mouse brain or human cells overexpressing the CB1R or CB2R. All data were in triplicates with Ki values determined from three independent experiments. See SI for a detailed procedure.
Supplementary Experimental Methods
Brain membrane preparation for CB1R b i nd i ng . The mouse cortex, excluding the cerebellum, was dissected from 6-week-old C57Bl/6Jhsd mice (Harlan, Israel). The tissue was homogenized in 4 mL Buffer 1 (320 mM sucrose, 2 mM EDTA, 5 m M MgCl 2) using a glass-Teflon homogenizer and Hei-T ORQUE 200 (Heidolph; Cat# 17-012- 002- 25 -1) homogenizer set to 132 rpm. After homogenization, the mixture was centrifuged at 1,600 × g for 10 min at four °C, and the resulting supernatant was kept on ice. The pellet (P1) was discarded, and the remaining supernatant was subje cted to additional rounds of resuspension in 4 mL Buffer 1 followed by centrifugations, repeating this process three times. The pellets obtained from these centrifugations were discarded, and the three supernatant fractions were combined and subjected to higher-speed centrifugation at 39,000 × g for 15 min at f ou r °C. […] This resuspended pellet ( P 2 ) was incubated at 37 °C for 10 min and then centrifuged at 23, 000 × g for 10 min at 4°C.
After centrifugation, the pellet (P2) was resuspended in 5 mL Buffer 2 and further incubated at 30 °C for 40 min. Following this incubation, the suspension was centrifuged at 11,000 × g for 15 min at 4 °C. The pellet (P2) was resuspended in 2 mL Buffer 3 containing 50 mM TRIS HCl pH 7.4, 1 mM EDTA, and 3 mM MgCl 2. T h e protein concentration of the final suspension was determined using the BCA assay.
Subsequently, the suspension was diluted to a final concentration of 2 mg/mL in Buffer 3, aliquoted on ice, and stored at - 80 °C for further use.
(§2) CB1R and CB2R binding. Binding to the CB1R/CB2R was asse ss ed using competition displacement as says with [ 3H] CP -55,940 as the radioligand. Purified membranes from the mouse brain were utilized for CB1R assessment (as described above). Purified […]
membranes from cells overexpressing human CB2R ( Char les River CAT # A618) w e r e employed for CB2R evaluation.
For mouse CB1R binding assays, the novel compounds were dissolved in dimethyl sulfoxide (DMSO) to reach a final concentration of 10 mM. Each compound was then diluted in Buffer 3 (as described above) supplemented with 0.14% BSA, resulting in concentrations ranging from 10^-4 M to 10^-10 M. Triplicates of 100 µL of each concentration were dispensed into siliconized glass tubes. At the same time, 100 µL of Buffer 3 with 0.14% BSA was dispensed into three tubes as blanks. CB1R b r a i n membranes (20 µg) were added to each tube and diluted with 800 µL Buffer 3 with 0.14% BSA. Subsequently, 5 nM of [ 3H] CP -55,940 (100 µL) was added to each tube.
The tubes were sealed with parafilm and incubated with shaking (120 rpm) in a water bath at 30 °C for 1 hour. Following incubation, 2 mL of cold Buffer 4 (50 mM TRIS HCl pH 7.4, 1 mg/mL BSA) was added to each tube.
To harvest the content of each tube, a Brandel M-24R Vacuum Harvester was employed, with a wet WHATMAN GF/B filter paper (Fired) (one membrane for 12 tubes) placed in the harvester after being washed twice with Buffer 4. The filter membrane in the harvester absorbed the full content of each tube. Then, the filter membrane was wash ed six times with Buffer 4. Each filter -glass membrane tube wa s excised and transferred to a 20 mL glass tube co ntaining a 5 mL ULTIMA GOLD scintillation cocktail. […]

human CB1R = molecular target: T2, human CB1R (Homo sapiens, UniProt P21554); assay: Radioligand competition displacement binding, [3H]CP-55,940, membranes with human CB1R; settings: for IC50: human CB1R, read-out: CB1R hIC50
T2 construct: purchased PerkinElmer RBHCB1M400UA
T2 sequence (P21554 whole entry): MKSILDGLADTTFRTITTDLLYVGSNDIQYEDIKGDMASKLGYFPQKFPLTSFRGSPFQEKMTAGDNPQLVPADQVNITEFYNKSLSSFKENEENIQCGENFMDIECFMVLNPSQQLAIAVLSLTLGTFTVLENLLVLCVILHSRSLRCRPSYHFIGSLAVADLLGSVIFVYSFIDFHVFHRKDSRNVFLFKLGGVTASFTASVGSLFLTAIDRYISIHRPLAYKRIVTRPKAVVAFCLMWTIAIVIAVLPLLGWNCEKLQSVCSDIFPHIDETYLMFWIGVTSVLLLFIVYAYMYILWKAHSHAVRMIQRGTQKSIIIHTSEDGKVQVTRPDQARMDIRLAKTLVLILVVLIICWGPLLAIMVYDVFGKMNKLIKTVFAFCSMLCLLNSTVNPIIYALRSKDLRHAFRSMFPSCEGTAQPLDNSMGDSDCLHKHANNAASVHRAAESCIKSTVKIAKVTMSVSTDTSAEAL
Experimental: as §1, with “procedure. […]” for “procedure.”
(§3) Radioligand binding assays were performed to asse ss the binding affinity of the different compounds to hCB1R (RBHCB1M4 00UA; Per kinElmer) or hCB 2R
(§4) (RBXCB2 M400UA; PerkinElmer). Competition displacement as says w ere employed, […]
(§5) utilizing [3H] C P -55,940 as the radioligand and crude membranes from humans for CB1 R or CB2 R. T he compounds were tested at various concentrations (eight points with a five-fold serial dilution starting at two m M) , and their ability to displace [3H] CP - 55, 940 was evaluated. Upon completion of the binding assays, the reaction mixture was filtered through GF/C plates, followed by four washes with cold wash buffer. After drying for one hour, 50 μL of Perkin Elmer Microscint 20 cocktail was added to the filter plate wells, and the bound [3H] C P -55,940 radioligand was measured using a β counter. All data points were duplicated, and Ki values were determined from two independent experiments using GraphPad Prism 7.02 analysis software, extracted through nonlinear regression analysis. […]

human CB2R = molecular target: T3, human CB2R (Homo sapiens, UniProt P34972); assay: Radioligand competition displacement binding, [3H]CP-55,940, membranes with human CB2R; settings: [3H]CP-55,940 displacement, read-out: CB2R hKi
T3 construct: purchased PerkinElmer; Charles River RBXCB2M400UA; A618
T3 sequence (P34972 whole entry): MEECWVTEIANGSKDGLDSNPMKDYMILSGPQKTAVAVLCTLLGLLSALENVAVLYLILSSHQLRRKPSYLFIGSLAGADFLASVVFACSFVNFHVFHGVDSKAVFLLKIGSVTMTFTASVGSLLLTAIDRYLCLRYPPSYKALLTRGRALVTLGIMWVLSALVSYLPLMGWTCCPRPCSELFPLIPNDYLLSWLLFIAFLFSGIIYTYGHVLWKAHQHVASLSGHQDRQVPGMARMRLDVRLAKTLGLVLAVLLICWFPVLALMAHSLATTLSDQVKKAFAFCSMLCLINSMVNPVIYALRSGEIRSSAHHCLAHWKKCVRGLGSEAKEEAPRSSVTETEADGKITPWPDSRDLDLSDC
Experimental: as §1
Supplementary Experimental Methods […]
as §2
membranes from cells overexpressing human CB2R ( Char les River CAT # A618) w e r e employed for CB2R evaluation. […]
as §3, §4, §5
MgCl 2. The tissue was homogenized using a glass -Teflon and Hei-T ORQUE 200 homogenizer (Heidolph; Cat#17- 012- 002- 25 -1) set to 132 rpm. The resulting suspen sion underwent centrifugation at 48,000 × g for 20 min at four °C, and the supernatant was discarded. The pellet obtained was homogenized again and subjected to a second centrifugation under the same conditions. Subsequently, the resulting pellet […]
mM EGTA, 9 mM MgCl 2, and 150 mM NaCl, followed by homogenization. The protein concentration of the suspension was determined using the BCA assay, and the suspen sion was diluted to a final concentration of 2 mg/mL in assay buffer. The prepared suspension was aliquoted on ice and stored at - 80 °C for further use.

HepG2 cells = assay: Cell viability assay (CellTiter Glo); type: cell-based; settings: 72 h; for IC50: Homo sapiens
Experimental: Cell viability assay. To assess the cell viability, which indicates the toxicity of the novel compounds, a total of 3,000 HepG2 cells were seeded into a 384-well plate. The compounds were then dispensed onto the cell plate using a Tecan D300e digital dispenser. Following compound addition, 35 μL CellTiter Glo reagent was added to all wells of the assay plate, and the plate was mixed for 30 sec on an or bital shaker to lyse cells. Subsequently, the plate was incubated at room temperature for 10 minutes. The luminescence signal was measured using a 384-well plate reader (EnVision). The obtained data were analyzed using XL-fit software (ID Business Solutions Ltd., Software version: XL fit 5. 5. 0. 5). The percentage of inhibition was calculated using the […]
Inhibition (%) = (1-Sample / ZPE) ×100
Sample represents the test compound's luminesc e nce signal, and ZPE represents the luminescence signal f r om the zer o-percent enzyme control.

in vitro = settings: mouse
Experimental: (§6) Protein binding of test compound in mouse brain using equilibrium dialysis […]
(§7) method. Solution A (0. 5 mM) was prepared by mixing 10 µL of a 10 mM stock solution […]
(§8) with 190 µL of DMSO. Subsequently, Solution B (0.02 mM) was prepared by adding […]
(§9) 8 µL of solution A to 192 µL of 0.05 M sodium phosphate buffer. The final concentration of DMSO in Solution B was 4%.
(§10) A 96-well plate was initially prepared by dispensing 380 µL aliquots of brain […]
(§11) tissue into wells designated for the brain while t h e buffer was added to the remaining […]
(§12) wells to serve as a control. Subsequently, 20 µL of Solution B (containing 0.02 mM of […]
(§13) test and reference compounds) was spiked into the pre-loaded brain samples in the […]
(§14) plate. This step yielded a final test concentration of 1 µM, containing 0.2% DMSO. A duplicate system was establi shed for the dialysis sampl es wherein brain tissu e was prepared against buffer. Initially, 100 µL aliquots of blank dialysis buffer were applied to the receiver side of the dialysis chambers. Subsequently, 100 µL aliquots of the brain […]
(§15) tissue spiked with te st and reference compounds were applied to the donor side of the […]
(§16) T0 brain samples for initial concentrations were prepared in duplicate. A 25µL […]
(§17) aliquot of the brain spiked with test and reference compounds was transferred into a 96- […]
(§18) well sample preparation plate. An equivalent volume of blank buffer was then added […]
(§19) to each well. Af ter the 5-hour incubation period, aliquots of 25 µL wer e taken f r om t h e […]
(§20) dialysis apparatus's donor and receiver sides and transferred into new sample […]
(§21) preparation plates. An equal volume of the opposite matrix (blank buffer to brain and […]
(§22) vice versa) was added to each well, resulting in a final volume of 50 µL in each well.
(§23) The samples (both T0 and f i v e h) were then quenched with 200 µL of acetonitrile […]
(§24) containing internal standard (IS) and vortexed at 600 rpm for 10 minutes. After […]
(§25) vortexing, the samples were centrifuged at 5594 × g for 15 minutes. Subsequently, 50 […]
(§26) µL of the supernatants were transferred to a new 96-well plate and mixed with 50 µL […]
(§27) of Milli- Q water. T he sample plates wer e cover ed and stor ed in a f r eezer ( -20 ℃) until […]
(§28) respectively. For data analysis, the following equations wer e used:
(§29) % Bound = 100 × ([Donor]5h -[ Receiver] 5h) / [Donor] 5h
(§30) % Recovery= 100 × ([Donor]5h +[Receiver] 5h) / [Initial] 0h
(§31) Undiluted Fu (%) = (1/D) / [(1/Fu2-1 ) + 1/ D ]
(§32) Whereas; D: Dilution factor = Dilution factor of brain: 4

mouse brain tissue = assay: in vitro; settings: mouse, 5 h, 1 µM
Experimental: as §6, §7, §8, §9, §10, §11, §12, §13, §14, §15, §16, §17, §18, §19, §20, §21, §22, §23, §24, §25, §26, §27, §28, §29, §30, §31, §32

T1 sequence (P47746 whole entry): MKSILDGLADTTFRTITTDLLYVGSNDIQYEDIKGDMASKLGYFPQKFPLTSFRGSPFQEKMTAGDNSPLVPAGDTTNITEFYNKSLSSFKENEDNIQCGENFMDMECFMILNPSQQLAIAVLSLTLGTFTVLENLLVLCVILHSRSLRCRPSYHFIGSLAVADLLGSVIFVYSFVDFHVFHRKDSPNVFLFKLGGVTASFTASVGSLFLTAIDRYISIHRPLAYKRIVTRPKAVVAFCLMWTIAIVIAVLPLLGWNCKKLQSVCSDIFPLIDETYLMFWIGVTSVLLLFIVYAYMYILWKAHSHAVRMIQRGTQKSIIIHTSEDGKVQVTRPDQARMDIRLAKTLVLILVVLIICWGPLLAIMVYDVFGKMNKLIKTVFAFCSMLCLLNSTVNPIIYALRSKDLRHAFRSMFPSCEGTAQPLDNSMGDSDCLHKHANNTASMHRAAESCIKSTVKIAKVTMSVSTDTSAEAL

SMILES: CS(=O)(=O)NC1CCCOc2c1nn(-c1ccccc1Cl)c2-c1ccc(Cl)cc1 (stereo not shown) [BNS809, N-[2-(2-Chlorophenyl)-3-(4-chlorophenyl)-5,6,7,8-tetrahydrooxepino[3,2-c]pyrazol-8-yl]methanesulfonamide]
- Ki (mouse CB1R): 33.8 nM
- IC50 (human CB1R): 8.5 nM
- Ki (human CB2R): > 9000 nM

SMILES: O=C(NC1CCCOc2c1nn(-c1ccccc1Cl)c2-c1ccc(Cl)cc1)C1CCN(S(=O)(=O)c2ccc(Cl)cc2)CC1 (stereo not shown) [BNS825, N-[2-(2-Chlorophenyl)-3-(4-chlorophenyl)-5,6,7,8-tetrahydrooxepino[3,2-c]pyrazol-8-yl]-1-(4-chlorophenyl)sulfonyl-piperidine-4-carboxamide]
- Ki (mouse CB1R): 1.6 nM
- Ki (human CB1R; [3H]CP-55,940 displacement, human CB1R membranes, read-out: CB1R hKi): 3.1 nM
- IC50 (human CB1R): 3.8 nM
- Ki (human CB2R): 127 nM
- Bottom (%) of cell viability inhibition curve (HepG2 cells): -11.62%
- Slope of cell viability inhibition curve (HepG2 cells): -0.21
- Top (%) of cell viability inhibition curve (HepG2 cells): 6.27%
- IC50 (HepG2 cells; read-out: cell viability Absolute IC50): > 100000 nM
- IC50 (HepG2 cells; read-out: cell viability relative IC50): > 100000 nM

SMILES: CC(=O)CC(c1ccccc1)c1c(O)c2ccccc2oc1=O (stereo not shown) [Warfarin, reference compound]
- fraction unbound at 5 h, 1 µM (in vitro): 0.277
- fraction unbound at 5 h, 1 µM (in vitro; tissue homogenate): 0.605
- Fraction of bound (%) (mouse brain tissue): 39.5%
- Undiluted Bound (%) (mouse brain tissue): 72.3%
